The pKi is the negative decadic logarithm of the Ki, by convention in mol/L.

In assay [1] the target is human Adenosine A1 receptor (Homo sapiens (Human), UniProt P30542). Kind of assay: Adenosine receptor TR-FRET binding assay (A1). The settings on record: inhibition of binding of 100 nM CA200645, CHO cell membranes. Here is the method:
(§1) Biological Example 1—Adenosine Receptor Time-Resolved Fluorescence Resonance Energy Transfer (TRFRET) Binding Assay
(§2) All FRET binding experiments were conducted at room temperature in white 384-well plates, in assay binding buffer containing 1×LabMed (Cisbio, France), 100 μg/mL saponin, 1% DMSO and 0.02% pluronic acid. Binding of the fluorescently labelled Adenosine receptor antagonist XAC (CA200645, FRET acceptor) to terbium-labelled A1, A2a, A2b and A3 adenosine receptors (FRET donors) was detected by time-resolved FRET due to the close proximity of the donor and acceptor in a binding event. To investigate the ability of unlabelled test compounds to bind to Adenosine A1, A2a, A2b and A3 receptors, dose response curves were constructed that determined the ability of a range of concentrations to inhibit the binding of 30 nM CA200645 to the A2b receptor and 100 nM CA200645 to the A1, A2a, and A3 receptor.
(§3) Serial dilution (1:3 dilutions) of test compounds in neat DMSO and transfer of a 400 nL sample of test compound into the assay plate was carried out using the Mosquito (TTP Labtech, UK). The compound samples were incubated for 2 hours at room temperature with a fixed concentration of CA200645 defined for each receptor (see above) and CHO cell membranes containing the human Adenosine A1 (0.5 μg/well), A2a (0.3 μg/well), A2b (1 μg/well) or A3 (1 μg/well) receptor in 40 μL of assay buffer. Total and non-specific binding of CA200645 was determined in the absence and presence of 10 μM XAC, respectively. Following 2 hours incubation, the level of CA200645 binding was detected on a Pherastar FSX (BMG Labtech, Germany) using standard TR-FRET settings. The terbium donor was excited with three laser flashes at a wavelength of 337 nm, and donor and acceptor emission was detected at 620 nm and 665 nm wavelengths, respectively. FRET ratios were obtained by multiplying the acceptor/donor ratio value by 10,000. Specific binding was determined by subtracting the non-specific binding FRET ratio from the total binding FRET ratio. Compound IC50 curves were analysed using GraphPad Prism 7.0 (GraphPad, USA) and Ki affinity values were determined from the obtained IC50 values using the method of Cheng and Prusoff.

Assay [2] addresses human Adenosine A2a receptor (Homo sapiens (Human), UniProt P29274). Kind of assay: Adenosine receptor TR-FRET binding assay (A2a). The following applies: inhibition of binding of 100 nM CA200645, CHO cell membranes. As for the experimental part: as §1, §2, §3
For orientation: TR-FRET usually uses a lanthanide donor and a delayed reading to cut background.

Assay [3] concerns the target human Adenosine A2b receptor (Homo sapiens (Human), UniProt P29275). Kind of assay: Adenosine receptor TR-FRET binding assay (A2b). As for the experimental part: as §1, §2, §3
In assay [4] the target is human Adenosine A3 receptor (Homo sapiens (Human), UniProt P0DMS8). Kind of assay: Adenosine receptor TR-FRET binding assay (A3). The following applies: inhibition of binding of 100 nM CA200645, CHO cell membranes. As for the experimental part: as §1, §2, §3
Where [5] appears, read: TR-FRET, inhibition of binding of 30 nM CA200645, CHO cell membranes.

pKi: −log10 of the molar value. Structures can show the parent of a compound that is named as a salt. Where two headings read alike, the source gives them in different places.

Sequence of human Adenosine A2a receptor (P29274 whole entry): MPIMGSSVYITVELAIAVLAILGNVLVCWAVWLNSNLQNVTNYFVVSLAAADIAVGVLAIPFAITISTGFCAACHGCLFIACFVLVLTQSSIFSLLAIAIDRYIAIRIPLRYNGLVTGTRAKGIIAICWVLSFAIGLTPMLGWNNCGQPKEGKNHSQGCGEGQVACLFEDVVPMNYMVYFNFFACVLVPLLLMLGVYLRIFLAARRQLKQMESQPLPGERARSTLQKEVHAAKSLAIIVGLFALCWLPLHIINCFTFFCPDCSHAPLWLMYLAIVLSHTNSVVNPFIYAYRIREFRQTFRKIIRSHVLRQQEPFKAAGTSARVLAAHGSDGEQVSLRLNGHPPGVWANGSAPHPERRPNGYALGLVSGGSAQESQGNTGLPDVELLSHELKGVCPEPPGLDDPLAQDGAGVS
Sequence of human Adenosine A1 receptor (P30542 whole entry): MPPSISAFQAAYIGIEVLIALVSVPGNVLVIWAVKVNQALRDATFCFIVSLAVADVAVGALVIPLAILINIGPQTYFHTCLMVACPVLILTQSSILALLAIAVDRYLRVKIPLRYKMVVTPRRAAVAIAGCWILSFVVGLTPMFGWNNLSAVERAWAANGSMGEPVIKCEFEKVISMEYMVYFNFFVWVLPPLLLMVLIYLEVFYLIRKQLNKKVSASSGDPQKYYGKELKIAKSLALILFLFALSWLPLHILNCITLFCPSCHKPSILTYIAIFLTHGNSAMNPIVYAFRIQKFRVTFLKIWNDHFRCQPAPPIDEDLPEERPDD
Sequence of human Adenosine A2b receptor (P29275 whole entry): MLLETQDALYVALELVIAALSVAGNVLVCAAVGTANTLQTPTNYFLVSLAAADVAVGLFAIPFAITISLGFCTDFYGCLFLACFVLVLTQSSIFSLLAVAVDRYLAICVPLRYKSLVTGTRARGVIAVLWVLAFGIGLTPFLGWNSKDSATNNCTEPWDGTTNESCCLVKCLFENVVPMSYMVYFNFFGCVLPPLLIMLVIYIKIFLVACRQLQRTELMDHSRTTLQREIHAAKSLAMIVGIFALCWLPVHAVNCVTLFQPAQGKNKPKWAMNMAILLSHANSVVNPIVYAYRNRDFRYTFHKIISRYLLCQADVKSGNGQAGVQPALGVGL
Sequence of human Adenosine A3 receptor (P0DMS8 whole entry): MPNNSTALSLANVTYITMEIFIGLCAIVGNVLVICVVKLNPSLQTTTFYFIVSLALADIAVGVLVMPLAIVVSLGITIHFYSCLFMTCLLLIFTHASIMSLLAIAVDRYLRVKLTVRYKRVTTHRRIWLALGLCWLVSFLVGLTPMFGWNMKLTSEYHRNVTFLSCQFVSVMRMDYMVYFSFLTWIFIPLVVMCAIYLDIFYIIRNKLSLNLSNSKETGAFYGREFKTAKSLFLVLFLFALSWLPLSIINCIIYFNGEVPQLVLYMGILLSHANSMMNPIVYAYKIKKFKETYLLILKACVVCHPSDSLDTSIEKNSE

Regarding `Cc1cc(-c2sc(NC(=O)N3C[C@H]4OCCN(C)[C@H]4C3)nc2-c2cccc(C#N)c2)cc(C(F)F)n1` (racemic) [Example 6.106, rac-(4aS,7aR)-N-[4-(3-Cyanophenyl)-5-[2-(difluoromethyl)-6-methyl-4-pyridyl]thiazol-2-yl]-4-methyl-2,3,4a,5,7,7a-hexahydropyrrolo[3,4-b][1,4]oxazine-6-carboxamide], the pKi in assay [1] is 6.86; in assay [2] it was 8.97; in assay [3], 8.35; in assay [4] it was 6.71.

For `Cc1cc(-c2sc(NC(=O)N3C[C@@H]4OCCN(C)[C@H]4C3)nc2-c2cccc(C#N)c2)cc(C(F)F)n1` (racemic) [Example 6.109, rac-(4aS,7aS)-N-[4-(3-Cyanophenyl)-5-[2-(difluoromethyl)-6-methyl-4-pyridyl]thiazol-2-yl]-4-methyl-2,3,4a,5,7,7a-hexahydropyrrolo[3,4-b][1,4]oxazine-6-carboxamide], the pKi is 6.33 in assay [1], 7.97 in assay [2], 7.34 in assay [3] and 6.53 in assay [4].

As for `Cc1cc(-c2sc(NC(=O)N3C[C@@H]4NCCO[C@H]4C3)nc2-c2cccc(C#N)c2)cc(C(F)F)n1` (racemic) [Example 14.1, rac-(4aS,7aS)—N-[4-(3-Cyanophenyl)-5-[2-(difluoromethyl)-6-methyl-4-pyridyl]thiazol-2-yl]-3,4,4a,5,7,7a-hexahydro-2H-pyrrolo[3,4-b][1,4]oxazine-6-carboxamide 2,2,2-trifluoroacetic acid salt], the pKi in assay [1] was 7.39; in assay [2] it was 8.57; in assay [3], 8.07; in assay [4], 6.95.

For `Cc1cc(-c2sc(NC(=O)N3C[C@@H]4NCCO[C@@H]4C3)nc2-c2cccc(C#N)c2)cc(C(F)F)n1` (racemic) [Example 14.2, rac-(4aS,7aR)—N-[4-(3-Cyanophenyl)-5-[2-(difluoromethyl)-6-methyl-4-pyridyl]thiazol-2-yl]-3,4,4a,5,7,7a-hexahydro-2H-pyrrolo[3,4-b][1,4]oxazine-6-carboxamide 2,2,2-trifluoroacetic acid salt], the pKi in assay [1] was 6.74; in assay [2] it was 8.68; in assay [3], 8.08; in assay [4], 6.88.

As to `Cc1cc(-c2sc(NC(=O)N3CCOCC3)nc2-c2cccc(C#N)c2)cc(Cl)n1` [Example 1, N-[5-(2-Chloro-6-methyl-4-pyridyl)-4-(3-cyanophenyl)thiazol-2-yl]morpholine-4-carboxamide], the pKi is 8.05 in assay [1], 9.38 in assay [2], 8.96 in assay [3] (setting [5]) and 6.52 in assay [4].

On to `Cc1cc(-c2sc(NC(=O)N3CCC[C@@H]3C(C)(C)O)nc2-c2cccc(C#N)c2)cc(Cl)n1` [Example 3, (2R)—N-[5-(2-Chloro-6-methyl-4-pyridyl)-4-(3-cyanophenyl)thiazol-2-yl]-2-(1-hydroxy-1-methyl-ethyl)pyrrolidine-1-carboxamide], for which the pKi in assay [1] is 6.00; in assay [2], 7.23; in assay [3] (setting [5]), 7.30; in assay [4] it was 5.70.

As for `Cc1cc(-c2sc(NC(=O)N3CCOCC3C(C)(C)O)nc2-c2cccc(C#N)c2)cc(Cl)n1` (stereo not drawn) [Example 3.4], the pKi in assay [2] was 7.84; in assay [3] (setting [5]), 7.84; in assay [4], 5.69.

Take `Cc1cc(-c2sc(NC(=O)N3[C@H](C)CNC[C@H]3C)nc2-c2cccc(C#N)c2)cc(C)n1` [Example 7.8, (2R,6R)—N-[4-(3-Cyanophenyl)-5-(2,6-dimethyl-4-pyridyl)thiazol-2-yl]-2,6-dimethyl-piperazine-1-carboxamide]: the pKi in assay [1] is 6.71; in assay [2] it was 8.17; in assay [3] (setting [5]), 7.22.

For `Cc1cc(-c2sc(NC(=O)N3CCNCC3(C)C)nc2-c2cccc(C#N)c2)cc(C)n1` [Example 7.9, N-[4-(3-Cyanophenyl)-5-(2,6-dimethyl-4-pyridyl)thiazol-2-yl]-2,2-dimethyl-piperazine-1-carboxamide], the negative logarithm of the Ki (pKi) was 7.21 in assay [1], 7.99 in assay [2] and 7.35 in assay [3] (setting [5]).

As for `Cc1cc(-c2sc(NC(=O)N3CCNCC34CCC4)nc2-c2cccc(C#N)c2)cc(C)n1` [Example 7.10, N-[4-(3-Cyanophenyl)-5-(2,6-dimethyl-4-pyridyl)thiazol-2-yl]-5,8-diazaspiro[3.5]nonane-5-carboxamide], the pKi in assay [1] is 6.91; in assay [2] it was 7.53; in assay [3] (setting [5]), 7.05.

On to `Cc1cc(-c2sc(NC(=O)N3C[C@@H](C)N[C@@H](C)C3)nc2-c2cccc(C#N)c2)cc(C)n1` [Example 13, (3S,5R)—N-[4-(3-Cyanophenyl)-5-(2,6-dimethyl-4-pyridyl)thiazol-2-yl]-3,5-dimethyl-piperazine-1-carboxamide], for which the results for the pKi in assay [1], in assay [2] and in assay [3] (setting [5]) were 6.43, 7.61 and 6.71, respectively.

For the compound `Cc1cc(-c2sc(NC(=O)N3CC4(CNCCO4)C3)nc2-c2cccc(C#N)c2)cc(C)n1` [Example 13.1, N-[4-(3-Cyanophenyl)-5-(2,6-dimethyl-4-pyridyl)thiazol-2-yl]-5-oxa-2,8-diazaspiro[3.5]nonane-2-carboxamide], the pKi was 6.79 in assay [1], 9.19 in assay [2] and 8.72 in assay [3] (setting [5]).

As for `Cc1cc(-c2sc(NC(=O)N3CCNC4(CC4)C3)nc2-c2cccc(C#N)c2)cc(C)n1` [Example 13.2, N-[4-(3-Cyanophenyl)-5-(2,6-dimethyl-4-pyridyl)thiazol-2-yl]-4,7-diazaspiro[2.5]octane-7-carboxamide], the negative-log Ki (pKi) in assay [1] was 7.57; in assay [2], 8.72; in assay [3] (setting [5]), 8.36.

With `Cc1cc(-c2sc(NC(=O)N3C[C@H](C)N[C@@H](C)C3)nc2-c2cccc(C#N)c2)cc(C)n1` [Example 13.3, (3S,5S)-N-[4-(3-Cyanophenyl)-5-(2,6-dimethyl-4-pyridyl)thiazol-2-yl]-3,5-dimethyl-piperazine-1-carboxamide], the pKi in assay [1] is 6.49; in assay [2], 7.94; in assay [3] (setting [5]), 7.11.

On to `Cc1cc(-c2sc(NC(=O)N3CCN[C@H](C#N)C3)nc2-c2cccc(C#N)c2)cc(C)n1` [Example 13.14, (3S)-3-Cyano-N-[4-(3-cyanophenyl)-5-(2,6-dimethyl-4-pyridyl)thiazol-2-yl]piperazine-1-carboxamide], for which the pKi was 7.89 in assay [1], 9.74 in assay [2] and 8.38 in assay [3] (setting [5]).

As for `Cc1cc(-c2sc(NC(=O)N3CCN[C@@H](C#N)C3)nc2-c2cccc(C#N)c2)cc(C)n1` [Example 13.15, (3R)-3-Cyano-N-[4-(3-cyanophenyl)-5-(2,6-dimethyl-4-pyridyl)thiazol-2-yl]piperazine-1-carboxamide], the pKi in assay [1] is 7.39; in assay [2], 9.48; in assay [3] (setting [5]), 8.29.

Regarding `Cc1cc(-c2sc(NC(=O)N3CCNCC3C3CC3)nc2-c2cccc(C#N)c2)cc(C)n1` (stereo not drawn) [Example 14.4, N-[4-(3-Cyanophenyl)-5-(2,6-dimethyl-4-pyridyl)thiazol-2-yl]-2-cyclopropyl-piperazine-1-carboxamide], the negative logarithm of the Ki (pKi) in assay [1] is 7.24; in assay [2] it was 8.24; in assay [3] (setting [5]), 7.43.

`Cc1cc(-c2sc(NC(=O)N3CCNCC3CC3CC3)nc2-c2cccc(C#N)c2)cc(C)n1` (stereo not drawn) [Example 14.5, N-[4-(3-Cyanophenyl)-5-(2,6-dimethyl-4-pyridyl)thiazol-2-yl]-2-(cyclopropylmethyl)piperazine-1-carboxamide]: the pKi in assay [1] was 7.21; in assay [2], 9.37; in assay [3] (setting [5]) it was 8.60.

`Cc1cc(-c2sc(NC(=O)N3CCNC(C)(C)C3)nc2-c2cccc(C#N)c2)cc(C)n1` [Example 14.6, N-[4-(3-Cyanophenyl)-5-(2,6-dimethyl-4-pyridyl)thiazol-2-yl]-3,3-dimethyl-piperazine-1-carboxamide]: the pKi in assay [1] was 6.73; in assay [2] it was 7.81; in assay [3] (setting [5]), 7.48.

In the case of `Cc1cc(-c2sc(NC(=O)N3CC4(COC4)C3)nc2-c2cccc(C#N)c2)cc(C)[n+]1[O-]` [Example 17, N-[4-(3-Cyanophenyl)-5-(2,6-dimethyl-1-oxido-pyridin-1-ium-4-yl)thiazol-2-yl]-2-oxa-6-azaspiro[3.3]heptane-6-carboxamide], the pKi is 7.92 in assay [1], 8.89 in assay [2] and 8.00 in assay [3] (setting [5]).

These data come from patent publication US20230293517A1, “ANTAGONIST COMPOUNDS” (AdoRx Therapeutics Limited, priority 2020, published 2023).
